Where only a bound is given, the exact number is not on record here.

In data set [1] the test system is Cavia porcellus. The data set is described as follows: Antagonist activity at NK1 receptor in po dosed Hartley guinea pig assessed as inhibition of GR73632-induced hypermotility measured after 0.75 hrs. The class given is functional. The conditions noted are these: for ED50: Cavia porcellus, Hartley, po, 0.75 h, read-out: ID50 (the source's name).
A further data set has as its system Liver microsomes. The note with it: human, 1 µM.
A further data set deals with Substance-P receptor (Homo sapiens, UniProt P25103). The data set can be described thus: biochemical.
The species named for data set [2] is Cavia porcellus. The data set can be described thus: animal or person. The conditions noted are these: Hartley, po, 0.75 h, read-out: INH.
A short description of a further data set: in vitro. The conditions noted are these: human, liver microsomes, Stability. For orientation: Liver microsomes are vesicles of endoplasmic reticulum, rich in cytochrome P450 enzymes.
The nature of a further data set: physchem. The note with it: buffer, pH 7.4.

Substance-P receptor, sequence (P25103 whole entry): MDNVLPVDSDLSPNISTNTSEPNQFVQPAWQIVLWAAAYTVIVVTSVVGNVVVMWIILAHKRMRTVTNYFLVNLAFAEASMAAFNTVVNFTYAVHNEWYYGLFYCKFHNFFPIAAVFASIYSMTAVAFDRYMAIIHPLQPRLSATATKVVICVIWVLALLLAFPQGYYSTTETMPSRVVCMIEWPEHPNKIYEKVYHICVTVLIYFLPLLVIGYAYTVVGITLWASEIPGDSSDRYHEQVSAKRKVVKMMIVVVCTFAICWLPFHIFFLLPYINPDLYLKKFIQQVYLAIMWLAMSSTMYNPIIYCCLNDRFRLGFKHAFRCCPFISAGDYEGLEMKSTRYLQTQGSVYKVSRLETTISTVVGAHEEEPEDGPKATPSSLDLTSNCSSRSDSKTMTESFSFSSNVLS
Description for Liver microsomes: (§1) Metabolic stability in human liver microsomes at 1 uM
Description for Substance-P receptor: Displacement of [125I]BH-SP from NK1 receptor in human IM9 cells after 30 mins by scintillation counting
Description for in vitro: as §1
Description for physchem: Lipophilicity, log D of the compound at pH 7.4

With `COc1ccc(-n2nnnc2C(F)(F)F)cc1CN[C@H]1CCN(C(=O)CNC(C)=O)C[C@H]1c1ccccc1`, the ID50 with Cavia porcellus [1] is 0.066 mg/kg. In addition, the Stability with Liver microsomes was 8 µL/min/mg.

A word on the IC50: it is the concentration at which inhibition is half-maximal. As for `COc1ccc(-n2nnnc2C(F)(F)F)cc1CN[C@H]1CCNC[C@H]1c1ccccc1` (racemic), half-maximal inhibition on Substance-P receptor (IC50) required 1.4 nM.

In general, microsomal CLint refers to the capacity of the preparation to metabolise the compound, expressed as a volume cleared per time. A higher microsomal CLint goes with faster metabolism. Consider `CCNC(=O)N1CC[C@H](NCc2cc(-n3nnnc3C(F)(F)F)ccc2OCC)[C@H](c2ccccc2)C1` (racemic), for which the inhibition in vivo at 1 mg/kg in the data set listed under Cavia porcellus [2] is 35%. Moreover, the microsomal CLint at 1 µM in the data set “in vitro” was 218 µL/min/mg. The compound also had an IC50 against Substance-P receptor of 0.086 nM.

One may read the logD as lipophilicity at a set pH, counting ionised and neutral species. Read a low logD as a more hydrophilic compound. Take `COc1ccc(-n2nnnc2C(F)(F)F)cc1CN[C@H]1CCN(C(=O)CNC(C)=O)C[C@H]1c1ccccc1` (racemic): the ID50 in the data set on Cavia porcellus [1] amounted to 0.26 mg/kg. Moreover, the Stability with Liver microsomes was 32 µL/min/mg. In the data set filed under Cavia porcellus [2], the inhibition in vivo at 1 mg/kg turned out to be 99%. In “physchem”, this compound returned a logD of 2.28. The same compound came in with an IC50 on Substance-P receptor of 0.073 nM.

Regarding `CCNC(=O)N1CC[C@H](NCc2cc(-n3nnnc3C(F)(F)F)ccc2OC2CC2)[C@H](c2ccccc2)C1` (racemic), in the data set filed under Cavia porcellus [2], the inhibition in vivo at 1 mg/kg was 94%. In addition, the microsomal CLint at 1 µM in “in vitro” is 217 µL/min/mg. At Substance-P receptor, this compound showed a half-maximal inhibitory concentration (IC50) of 0.044 nM.

As for `COc1ccc(-n2nnnc2C(F)(F)F)cc1CN[C@H]1CCN(C(=O)NC(C)C)C[C@H]1c1ccccc1` (racemic), in the data set listed under Cavia porcellus [2], the inhibition in vivo at 1 mg/kg is 66%. The logD in the data set “physchem” was 3.09. The microsomal CLint at 1 µM in “in vitro” was determined as 167 µL/min/mg. The compound also showed an IC50 at Substance-P receptor of 0.081 nM.

For `COc1ccc(OC(F)(F)F)cc1CN[C@H]1CCN(C(C)=O)C[C@H]1c1ccccc1` (racemic), inhibition against Substance-P receptor was half-maximal at 0.16 nM (IC50).

In the case of `COc1ccc(-n2nnnc2C(F)(F)F)cc1CN[C@H]1CCN(C(=O)CCNC(C)=O)C[C@H]1c1ccccc1.Cl` (racemic), the ED50 in the data set with Cavia porcellus [1] is 0.34 mg/kg. Further, the inhibition in vivo at 1 mg/kg in the data set filed under Cavia porcellus [2] came out at 79%. In “physchem”, this compound came in with a logD of 2.35. This compound came in with a microsomal CLint at 1 µM in “in vitro” of 95 µL/min/mg. The compound further registered an IC50 on Substance-P receptor of 0.054 nM.

For `COc1ccc(-n2nnnc2C(F)(F)F)cc1CN[C@H]1CCN(C(=O)NCC(F)(F)F)C[C@H]1c1ccccc1` (racemic), the inhibition in vivo at 1 mg/kg in the data set filed under Cavia porcellus [2] came to 65%. Further, the logD in the data set “physchem” turned out to be 3.03. In addition, the microsomal CLint at 1 µM in the data set “in vitro” turned out to be 155 µL/min/mg. The compound further showed an IC50 on Substance-P receptor of 0.057 nM.

Regarding `COc1ccc(OC(F)(F)F)cc1CN[C@H]1CCN(S(C)(=O)=O)C[C@H]1c1ccccc1` (racemic), the IC50 on Substance-P receptor came to 1.2 nM.

On to `COC(=O)N1CC[C@H](NCc2cc(OC(F)(F)F)ccc2OC)[C@H](c2ccccc2)C1` (racemic), for which the IC50 against Substance-P receptor worked out at 0.31 nM.

At Substance-P receptor, `CCNC(=O)N1CC[C@H](NCc2cc(OC(F)(F)F)ccc2OC)[C@H](c2ccccc2)C1` (racemic) gave a half-inhibitory concentration (IC50) of 0.17 nM.

Turning to `COc1ccc(-n2nnnc2C(F)(F)F)cc1CN[C@H]1CCN(C(=O)CN(C)C(C)=O)C[C@H]1c1ccccc1` (racemic), the inhibition in vivo at 1 mg/kg in the data set filed under Cavia porcellus [2] was found to be 74%. Also, the logD in the data set “physchem” came out at 2.31. The microsomal CLint at 1 µM in the data set “in vitro” is 73 µL/min/mg. On Substance-P receptor, this compound yielded an IC50 of 0.084 nM.

With `CCNC(=O)N1CC[C@H](NCc2cc(-n3nnnc3C(F)(F)F)ccc2OC)[C@H](c2ccccc2)C1.Cl` (racemic), in the data set on Cavia porcellus [1], the ED50 was found to be 0.37 mg/kg. In the data set listed under Cavia porcellus [2], the inhibition in vivo at 1 mg/kg worked out at 70%. In “physchem”, this compound yielded a logD of 2.79. The intrinsic metabolic clearance (microsomal CLint) at 1 µM in “in vitro” worked out at 159 µL/min/mg. For the same compound, the IC50 on Substance-P receptor was 0.039 nM.

Compound `CCN1CC[C@H](NCc2cc(OC(F)(F)F)ccc2OC)[C@H](c2ccccc2)C1` (racemic) yielded an IC50 against Substance-P receptor of 4.8 nM.

In the case of `COC(=O)N1CC[C@H](NCc2cc(-n3nnnc3C(F)(F)F)ccc2OC)[C@H](c2ccccc2)C1` (racemic), the inhibition in vivo at 1 mg/kg in the data set filed under Cavia porcellus [2] turned out to be 65%. Besides, the microsomal CLint at 1 µM in “in vitro” turned out to be 199 µL/min/mg. The compound further gave an IC50 on Substance-P receptor of 0.054 nM.

With `COc1ccc(-n2nnnc2C(F)(F)F)cc1CN[C@H]1CCN(C(=O)C2CCN(C(C)=O)CC2)C[C@H]1c1ccccc1.Cl` (racemic), the ED50 in the data set with Cavia porcellus [1] stood at 0.33 mg/kg. In the data set filed under Cavia porcellus [2], the inhibition in vivo at 1 mg/kg came to 85%. This compound also displayed a logD in “physchem” of 2.51. For the same compound, the microsomal CLint at 1 µM in “in vitro” came out at 76 µL/min/mg. On Substance-P receptor, this compound came in with an IC50 of 0.1 nM.

Consider `CCNC(=O)N1CC[C@H](NCc2cc(-n3nnnc3C(F)(F)F)cc3c2OCC3)[C@H](c2ccccc2)C1` (racemic), for which the inhibition in vivo at 1 mg/kg in the data set listed under Cavia porcellus [2] is 57%. In addition, the microsomal CLint at 1 µM in “in vitro” came to 160 µL/min/mg. Further, the IC50 against Substance-P receptor came to 0.093 nM.

For the compound `COc1ccc(-n2nnnc2C(F)(F)F)cc1CN[C@@H]1CCN(C(=O)CNC(C)=O)C[C@@H]1c1ccccc1`, the IC50 against Substance-P receptor is above 100 nM.

Regarding `CCNC(=O)N1CC[C@@H](NCc2cc(OC(F)(F)F)ccc2OC)[C@H](c2ccccc2)C1` (racemic), the 50% inhibitory concentration (IC50) against Substance-P receptor was 3.7 nM.

The compound `COc1ccc(OC(F)(F)F)cc1CN[C@H]1CCNC[C@H]1c1ccccc1` (racemic) gave an IC50 on Substance-P receptor of 8.4 nM.

Consider `COc1ccc(-n2nnnc2C(F)(F)F)cc1CN[C@H]1CCN(C(=O)N(C)C)C[C@H]1c1ccccc1` (racemic), for which the inhibition in vivo at 1 mg/kg in the data set listed under Cavia porcellus [2] came out at 90%. This compound also came in with a logD in the data set “physchem” of 3.18. In “in vitro”, this compound came in with a microsomal CLint at 1 µM of 213 µL/min/mg. Also, the IC50 at Substance-P receptor was found to be 0.13 nM.

Consider `COc1ccc(-n2nnnc2C(F)(F)F)cc1CN[C@H]1CCN(C(=O)C2CN(C(C)=O)C2)C[C@H]1c1ccccc1` (racemic), for which, in the data set filed under Cavia porcellus [2], the inhibition in vivo at 1 mg/kg worked out at 32%. In addition, the log distribution coefficient (logD) in the data set “physchem” came out at 2.31. The microsomal CLint at 1 µM in the data set “in vitro” was found to be 27 µL/min/mg. On Substance-P receptor, this compound displayed an IC50 of 0.057 nM.

Regarding `COc1ccc(-n2nnnc2C(F)(F)F)cc1CN[C@H]1CCN(S(C)(=O)=O)C[C@H]1c1ccccc1` (racemic), the inhibition in vivo at 1 mg/kg in the data set filed under Cavia porcellus [2] stood at 18%. In the data set “in vitro”, this compound returned a microsomal CLint at 1 µM of 144 µL/min/mg. Moreover, the IC50 against Substance-P receptor was found to be 0.075 nM.

As for `COc1ccc(-n2nnnc2C(F)(F)F)cc1CN[C@H]1CCN(C(=O)CCCNC(C)=O)C[C@H]1c1ccccc1` (racemic), the logD in the data set “physchem” was found to be 2.43. In the data set “in vitro”, the microsomal CLint at 1 µM came out at 146 µL/min/mg. In addition, the IC50 at Substance-P receptor was 0.025 nM.

For `COc1ccc(-n2nnnc2C(F)(F)F)cc1CN[C@H]1CCN(C(C)=O)C[C@H]1c1ccccc1.Cl` (racemic), in the data set with Cavia porcellus [1], the ED50 amounted to 0.2 mg/kg. Besides, the inhibition in vivo at 1 mg/kg in the data set filed under Cavia porcellus [2] was 82%. The same compound yielded a logD in the data set “physchem” of 2.69. In addition, the microsomal CLint at 1 µM in “in vitro” was determined as 111 µL/min/mg. The IC50 at Substance-P receptor is 0.049 nM.

`CCN1CC[C@H](NCc2cc(-n3nnnc3C(F)(F)F)ccc2OC)[C@H](c2ccccc2)C1` (racemic): the IC50 against Substance-P receptor turned out to be 1.9 nM.

In turn, `COc1ccc(-n2nnnc2C(F)(F)F)cc1CN[C@@H]1CCN(C(=O)CNC(C)=O)C[C@H]1c1ccccc1` (racemic) registered a microsomal CLint at 1 µM in the data set “in vitro” of 34 µL/min/mg. The compound also showed an IC50 against Substance-P receptor of 0.2 nM.

Values taken from ChEMBL document CHEMBL1914286, “Design, structure-activity relationship, and highly efficient asymmetric synthesis of 3-phenyl-4-benzylaminopiperidine derivatives as novel neurokinin-1 receptor antagonists” (Bioorg Med Chem, 2011).
